The numbers were not newly measured in PMC12394912 (RSC Chemical Biology, 2025), which cites them from elsewhere.

Consider `Cc1ncsc1-c1ccc(CNC(=O)[C@@H]2C[C@@H](O)CN2C(=O)[C@@H](NC(=O)COCCOCCOCCNC(=O)C[C@@H]2N=C(c3ccc(Cl)cc3)c3c(sc(C)c3C)-n3c(C)nnc32)C(C)(C)C)cc1` [MZ1], for which the “PAMPA permeability, fold lower than E3 ligand VH032” value is about 290 fold and the “PAMPA permeability, fold lower than POI ligand JQ1” value is listed as “approximately 190 fold”.
